The text below walks through data of PMC5550456, “Vitamin B12 as a carrier of peptide nucleic acid (PNA) into bacterial cells” (Scientific Reports, 2017).

The subject of data set [1] is some mammalian cells. The note with it: cited from earlier work. From the text:
(§1) The most serious drawback, which currently precludes the use of this approach, is poor delivery of the oligonucleotides into bacterial cells. The bacterial cell wall prevents the efficient uptake of short oligonucleotides from the environment[14] and non-invasive delivery of PNAs is extremely difficult. To overcome this problem, chemical conjugation of PNA to a variety of cell-penetrating peptides has been tested, [15], [16]. The most commonly used conjugate of PNA with the peptide (KFF)3K was delivered with high efficiency in vitro. However, the activity of (KFF)3K-PNA conjugates was drama ...

The conditions of data set [2]: cited from earlier work.
From the text: as §1

The test system of data set [3] is S. Typhimurium. The data set is described as follows: Effect on bacterial growth (OD600) of S. Typhimurium. Type of data set: cell-based, Salmonella Typhimurium. The note with it: up to the tested 16 μM concentrations. On the procedure: (§2) The effect of the different PNA conjugates and controls on the red fluorescence of bacterial cells was determined using a standard microdilution method[67] in concentration range 0–16 µM. Cultures grown to exponential phase in Davis Minimal Broth were diluted to ~5 × 10^5 CFU/ml. These cell suspensions were added to wells of sterile 96-well plates containing different concentrations of the tested compounds. Following overnight incubation at 37 °C with shaking, the plates were vigorously shaken (double orbital) for 10 sec and then the cell density (OD600) and fluorescence (λ excitation – 584 nm; λ emission – 610 nm) were measured using a plate reader (Microplate Reader Biotek Synergy H1MFDG). The cell suspensions were also examined by light and fluorescence microscopy using a Nikon Eclipse Ni-U microscope (Figure S1).

For data set [4] the following is noted: cited from earlier work. As to the method:
There was no decrease in OD600 upon overnight treatment with the conjugates (up to the tested 16 μM concentrations). Free vitamin B12 has no antibacterial activity at concentrations up to 100 μg/ml[52].
This is another data set of the same source.

For data set [5], the system named is E. coli. Kind of data set: Effect on bacterial growth (OD600) of E. coli. The note with it: up to the tested 16 μM concentrations. Format: cell-based, Escherichia coli. As to the method:
as §2

The test system of data set [6] is mRNA of the reporter gene mrfp1 expressing Red Fluorescent Protein. Kind of data set: Inhibition of RFP synthesis (red fluorescence) in E. coli carrying pBBR(rfp). Type of data set: cell-based, Escherichia coli K-12 MG1655. The note with it: overnight treatment, 0–16 µM. On the procedure: E. coli TG1[58] was used for plasmid construction. For triparental mating, E. coli DH5α carried the helper plasmid pRK2013[59] and E. coli S17-1[60] was the mrfp1 plasmid donor. E. coli K-12 MG1655[61], and Salmonella enterica subsp. enterica serovar Typhimurium LT2-R (rifampicin resistant mutant of wild-type S. Typhimurium LT2[62]) were used in PNA delivery experiments. To prepare inocula, all strains were grown overnight in lysogeny broth (LB) at 37 °C with shaking. […] Cultures were supplemented with appropriate antibiotics to prevent plasmid loss.
as §2, with “Cultures grown to exponential phase in Davis Minimal Broth were diluted to ~5 × 10^5 CFU/ml. These cell suspensions were added to wells of sterile 96-well plates containing different concentrations of the tested compounds.” left out
To obtain relative fluorescence values (RFU), the background media noise was subtracted from each data point for both cell density (OD600) and fluorescence. […]

Where no end group is shown, it is not given here. Where only a bound is given, the exact number is not on record here.

With KFFKFFKFFK-NH2 [(KFF)3K only], the histamine release entry in data set [1] is listed as “initiates histamine release”. Also, the “concentration with hemolytic activity” value in data set [2] was 40000 ng/mL.

On to cyanocobalamin [vitamin B12], for which the “bacterial growth, OD600 after overnight incubation” value in data set [3] and in data set [5] was “slight increase of OD600” in each case. Also, in data set [4], the “concentration without antibacterial activity” value is above 100 µg/mL. Further, the “inhibition of RFP synthesis / mrfp1 expression (in words)” value in data set [6] is “Neither B12–(CH2)12-PNA(scrambled) (Fig. 6) nor free vitamin B12 (data not shown) had any inhibitory effect”.
